Where “and” joins values, the source holds several entries; their conditions need not be identical. Equal entries are not always repeated. Toxic doses and inconclusive results are not listed.
System: L1210 leukemia ip in BDF1 mice, survival T/C
Assay: NCI In Vivo Anticancer Drug Screen. Data for tumor model L1210 Leukemia (intraperitoneal) in B6D2F1 (BDF1) mice
Conditions: endpoint: mean survival time, higher = longer survival
In short: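 Each compound was tested against a transplantable tumor grown in mice. The endpoint was survival, with treated animals benchmarked against vehicle controls as a simple ratio.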

[1] = dose: 100.0 mg/kg/injection, schedule: Q01DX009 (ip), vehicle: Klucel (hydroxypropylcellulose) (HPC)
[2] = dose: 200.0 mg/kg/injection, schedule: Q01DX009 (ip), vehicle: Klucel (hydroxypropylcellulose) (HPC)
[3] = dose: 400.0 mg/kg/injection, schedule: Q01DX009 (ip), vehicle: Klucel (hydroxypropylcellulose) (HPC)

## CCC(C)N(CCNc1cc(C)nc(/N=C(\N)Nc2ccc(Cl)c(Cl)c2)n1)C(C)CC (stereo not given)
[1]
  T/C: 106 % of control
[2]
  T/C: 97 % of control
[3]
  T/C: 86 % of control

## COc1ccc(C=[N+](C)CCc2ccc(OC)c(OC)c2)cc1OC
dose: 25.0 mg/kg/injection, schedule: Q01DX009 (ip), vehicle: saline
  T/C: 96 % of control
dose: 50.0 mg/kg/injection, schedule: Q01DX009 (ip), vehicle: saline
  T/C: 101 % of control
dose: 100.0 mg/kg/injection, schedule: Q01DX009 (ip), vehicle: saline
  T/C: 93 % of control and 116 % of control
dose: 100.0 mg/kg/injection, schedule: Q04DX003 (ip), vehicle: saline
  T/C: 100 % of control
dose: 200.0 mg/kg/injection, schedule: Q01DX009 (ip), vehicle: saline
  T/C: 98 % of control and 91 % of control
dose: 200.0 mg/kg/injection, schedule: Q04DX003 (ip), vehicle: saline
  T/C: 97 % of control

## COc1ccc2c3c(c4cc(OC)c(OC)cc4c2c1)CN1CCC[C@H]1[C@@H]3O
dose: 0.57 mg/kg/injection, schedule: Q01DX Z (ip), vehicle: water
  T/C: 103 % of control
dose: 0.86 mg/kg/injection, schedule: Q01DX Z (ip), vehicle: water
  T/C: 106 % of control
dose: 1.3 mg/kg/injection, schedule: Q01DX Z (ip), vehicle: water
  T/C: 111 % of control
dose: 2.0 mg/kg/injection, schedule: Q01DX Z (ip), vehicle: water
  T/C: 119 % of control
dose: 9.0 mg/kg/injection, schedule: Q01DX015 (ip), vehicle: acid diluted with saline
  T/C: 118 % of control
dose: 12.0 mg/kg/injection, schedule: Q01DX015 (ip), vehicle: acid diluted with saline
  T/C: 112 % of control

## O=C(O)COc1ccccc1CO
dose: 100.0 mg/kg/injection, schedule: Q01DX001 (ip), vehicle: saline with Tween-80
  T/C: 91 % of control
dose: 100.0 mg/kg/injection, schedule: Q01DX009 (ip), vehicle: saline with Tween-80
  T/C: 88 % of control
dose: 200.0 mg/kg/injection, schedule: Q01DX001 (ip), vehicle: saline with Tween-80
  T/C: 94 % of control
dose: 200.0 mg/kg/injection, schedule: Q01DX009 (ip), vehicle: saline with Tween-80
  T/C: 94 % of control
dose: 400.0 mg/kg/injection, schedule: Q01DX001 (ip), vehicle: saline with Tween-80
  T/C: 92 % of control
dose: 400.0 mg/kg/injection, schedule: Q01DX009 (ip), vehicle: saline with Tween-80
  T/C: 91 % of control

## COc1c2ccccc2cc2ccccc12
dose: 50.0 mg/kg/injection, schedule: Q01DX009 (ip), vehicle: acetone
  T/C: 94 % of control
dose: 100.0 mg/kg/injection, schedule: Q01DX009 (ip), vehicle: acetone
  T/C: 92 % of control
dose: 200.0 mg/kg/injection, schedule: Q01DX009 (ip), vehicle: acetone
  T/C: 89 % of control

## O=CNc1cc(Cl)cc(Cl)c1
dose: 25.0 mg/kg/injection, schedule: Q01DX009 (ip), vehicle: Klucel (hydroxypropylcellulose) (HPC)
  T/C: 97 % of control
dose: 50.0 mg/kg/injection, schedule: Q01DX009 (ip), vehicle: Klucel (hydroxypropylcellulose) (HPC)
  T/C: 94 % of control
[1]
  T/C: 114 % of control

## O=S(=O)(O)c1ccccc1.O=S(=O)(O)c1ccccc1.[NH-]C1CCCCC1[NH-].[Pt+2]
dose: 0.5 mg/kg/injection, schedule: Q04DX003 (ip), vehicle: dextrose
  T/C: 112 % of control
dose: 2.0 mg/kg/injection, schedule: Q04DX003 (ip), vehicle: dextrose
  T/C: 154 % of control
dose: 4.0 mg/kg/injection, schedule: Q04DX003 (ip), vehicle: dextrose
  T/C: 173 % of control
dose: 6.0 mg/kg/injection, schedule: Q04DX003 (ip), vehicle: dextrose
  T/C: 182 % of control

## COc1ccc(C2=C(Br)C(=O)C(c3ccc(OC)cc3)=C(Br)C2=O)cc1
dose: 100.0 mg/kg/injection, schedule: Q04DX003 (ip), vehicle: Klucel (hydroxypropylcellulose) (HPC)
  T/C: 94 % of control
dose: 200.0 mg/kg/injection, schedule: Q04DX003 (ip), vehicle: Klucel (hydroxypropylcellulose) (HPC)
  T/C: 96 % of control
dose: 400.0 mg/kg/injection, schedule: Q04DX003 (ip), vehicle: Klucel (hydroxypropylcellulose) (HPC)
  T/C: 98 % of control

## CC(C)(O)C(Cl)S(=O)c1ccccc1 (stereo not given)
dose: 75.0 mg/kg/injection, schedule: Q03DX002 (ip), vehicle: saline with Tween-80
  T/C: 113 % of control
dose: 300.0 mg/kg/injection, schedule: Q03DX002 (ip), vehicle: saline with Tween-80
  T/C: 117 % of control

## CC1(C)OCC(C2OC3OC(C)(C)OC3C2O)O1 (stereo not given)
dose: 100.0 mg/kg/injection, schedule: Q01DX001 (ip), vehicle: saline
  T/C: 97 % of control
dose: 200.0 mg/kg/injection, schedule: Q01DX001 (ip), vehicle: saline
  T/C: 100 % of control
dose: 400.0 mg/kg/injection, schedule: Q01DX001 (ip), vehicle: saline
  T/C: 100 % of control

## CC(=O)NCCc1ccc(NCc2cnc3nc(N)nc(N)c3n2)cc1
dose: 20.0 mg/kg/injection, schedule: Q01DX009 (ip), vehicle: Klucel (hydroxypropylcellulose) (HPC)
  T/C: 98 % of control
dose: 40.0 mg/kg/injection, schedule: Q01DX009 (ip), vehicle: Klucel (hydroxypropylcellulose) (HPC)
  T/C: 96 % of control
dose: 80.0 mg/kg/injection, schedule: Q01DX009 (ip), vehicle: Klucel (hydroxypropylcellulose) (HPC)
  T/C: 98 % of control

## CCOC(=O)c1cnc(SC)nc1NCCc1ccccc1
[1]
  T/C: 98 % of control
[2]
  T/C: 91 % of control
[3]
  T/C: 95 % of control

Reference: PubChem BioAssay AID248 (DTP/NCI, 2004)
